Source: ChEMBL document CHEMBL5584264 (Bioorg Med Chem Lett, 2024)
Converted amounts (≈) assume the structure as drawn.

What was measured:
RAW264.7 [1] = assay: Antiinflammatory activity against LPS-induced mouse RAW264.7 cells assessed as cell viability at 1 uM by celltiter-blue cell viability assay; assay type: functional; settings: read-out: Activity
RAW264.7 [2] = assay: Antiinflammatory activity against LPS-induced mouse RAW264.7 cells assessed as cell viability at 10 uM by celltiter-blue cell viability assay; assay type: functional; settings: read-out: Activity
RAW264.7 [3] = assay: Antiinflammatory activity against LPS-induced mouse RAW264.7 cells assessed as reduction in TNF-alpha level at 30 uM preincubated with compound for 1 hr followed by LPS-induction and measured after 24 hrs by ELISA analysis relative to control; assay type: functional; set-up: scale not given: the % may be the effect or the level left; settings: time 25 hrs
RAW264.7 [4] = assay: Antiinflammatory activity against LPS-induced mouse RAW264.7 cells assessed as reduction in nitrite level preincubated with compound for 1 hr followed by LPS-induction and measured after 24 hrs by Fluorometric Assay; assay type: functional, cell-based; settings: dose 1-30 µM, time 25.0 hrs
RAW264.7 [5] = assay: Antiinflammatory activity against LPS-induced mouse RAW264.7 cells assessed as reduction in TNF-alpha level at 10 uM preincubated with compound for 1 hr followed by LPS-induction and measured after 24 hrs by ELISA analysis relative to control; assay type: functional; set-up: scale not given: the % may be the effect or the level left; settings: time 25 hrs
RAW264.7 [6] = assay: Antiinflammatory activity against LPS-induced mouse RAW264.7 cells assessed as cell viability at 30 uM by celltiter-blue cell viability assay; assay type: functional; settings: read-out: Activity
RAW264.7 [7] = assay: Antiinflammatory activity against LPS-induced mouse RAW264.7 cells assessed as reduction in nitrite level at 10 uM preincubated with compound for 1 hr followed by LPS-induction and measured after 24 hrs by Fluorometric Assay relative to control; assay type: functional; set-up: scale not given: the % may be the effect or the level left; settings: time 25 hrs
RAW264.7 [8] = assay: Antiinflammatory activity against LPS-induced mouse RAW264.7 cells assessed as reduction in nitrite level at 30 uM preincubated with compound for 1 hr followed by LPS-induction and measured after 24 hrs by Fluorometric Assay relative to control; assay type: functional; set-up: scale not given: the % may be the effect or the level left; settings: time 25 hrs
RAW264.7 [9] = assay: Antiinflammatory activity against LPS-induced mouse RAW264.7 cells assessed as reduction in IL-6 level at 1 uM preincubated with compound for 1 hr followed by LPS-induction and measured after 24 hrs by ELISA analysis relative to control; assay type: functional; set-up: scale not given: the % may be the effect or the level left; settings: time 25 hrs
RAW264.7 [10] = assay: Antiinflammatory activity against LPS-induced mouse RAW264.7 cells assessed as reduction in IL-6 level at 10 uM preincubated with compound for 1 hr followed by LPS-induction and measured after 24 hrs by ELISA analysis relative to control; assay type: functional; set-up: scale not given: the % may be the effect or the level left; settings: time 25 hrs
RAW264.7 [11] = assay: Antiinflammatory activity against LPS-induced mouse RAW264.7 cells assessed as reduction in IL-6 level at 30 uM preincubated with compound for 1 hr followed by LPS-induction and measured after 24 hrs by ELISA analysis relative to control; assay type: functional; set-up: scale not given: the % may be the effect or the level left; settings: time 25 hrs
RAW264.7 [12] = assay: Antiinflammatory activity against LPS-induced mouse RAW264.7 cells assessed as reduction in IL-6 level preincubated with compound for 1 hr followed by LPS-induction and measured after 24 hrs by ELISA analysis; assay type: functional, cell-based; settings: dose 1-30 µM, time 25.0 hrs
RAW264.7 [13] = assay: Antiinflammatory activity against LPS-induced mouse RAW264.7 cells assessed as reduction in nitrite level at 1 uM preincubated with compound for 1 hr followed by LPS-induction and measured after 24 hrs by Fluorometric Assay relative to control; assay type: functional; set-up: scale not given: the % may be the effect or the level left; settings: time 25 hrs
[14] = molecular target: Sigma intracellular receptor 2 (Homo sapiens, UniProt Q5BJF2); assay: Displacement of [3H]DTG from sigma-2 receptor (unknown origin) assessed as inhibition constant
[15] = molecular target: 5-hydroxytryptamine receptor 2B (Homo sapiens, UniProt P41595); assay: Displacement of [3H]DTG from 5HT2B receptor (unknown origin) assessed as inhibition constant
[16] = molecular target: Protein cereblon/DNA damage-binding protein 1 (Homo sapiens) (UniProt Q96SW2+Q16531); assay: Displacement of Cy5-tagged thalidomide-like probe from human CRBN/DDB1 complex by fluorescence polarization based CRBN binding assay; assay type: protein assay
RAW264.7 [17] = assay: Antiinflammatory activity against LPS-induced mouse RAW264.7 cells assessed as reduction in TNF-alpha level at 1 uM preincubated with compound for 1 hr followed by LPS-induction and measured after 24 hrs by ELISA analysis relative to control; assay type: functional; set-up: scale not given: the % may be the effect or the level left; settings: time 25 hrs
[18] = molecular target: Sigma non-opioid intracellular receptor 1 (Homo sapiens, UniProt Q99720); assay: Displacement of [3H]DTG from sigma-1 receptor (unknown origin) assessed as inhibition constant
[19] = molecular target: 5-hydroxytryptamine receptor 2A (Homo sapiens, UniProt P28223); assay: Displacement of [3H]DTG from 5HT2A receptor (unknown origin) assessed as inhibition constant
[20] = Solubility of compound in PBS at pH 7.4 by LC/MS analysis; assay type: physicochemical

Protein cereblon/DNA damage-binding protein 1 (Homo sapiens), sequence (Q16531 2-1140 partner limits assumed): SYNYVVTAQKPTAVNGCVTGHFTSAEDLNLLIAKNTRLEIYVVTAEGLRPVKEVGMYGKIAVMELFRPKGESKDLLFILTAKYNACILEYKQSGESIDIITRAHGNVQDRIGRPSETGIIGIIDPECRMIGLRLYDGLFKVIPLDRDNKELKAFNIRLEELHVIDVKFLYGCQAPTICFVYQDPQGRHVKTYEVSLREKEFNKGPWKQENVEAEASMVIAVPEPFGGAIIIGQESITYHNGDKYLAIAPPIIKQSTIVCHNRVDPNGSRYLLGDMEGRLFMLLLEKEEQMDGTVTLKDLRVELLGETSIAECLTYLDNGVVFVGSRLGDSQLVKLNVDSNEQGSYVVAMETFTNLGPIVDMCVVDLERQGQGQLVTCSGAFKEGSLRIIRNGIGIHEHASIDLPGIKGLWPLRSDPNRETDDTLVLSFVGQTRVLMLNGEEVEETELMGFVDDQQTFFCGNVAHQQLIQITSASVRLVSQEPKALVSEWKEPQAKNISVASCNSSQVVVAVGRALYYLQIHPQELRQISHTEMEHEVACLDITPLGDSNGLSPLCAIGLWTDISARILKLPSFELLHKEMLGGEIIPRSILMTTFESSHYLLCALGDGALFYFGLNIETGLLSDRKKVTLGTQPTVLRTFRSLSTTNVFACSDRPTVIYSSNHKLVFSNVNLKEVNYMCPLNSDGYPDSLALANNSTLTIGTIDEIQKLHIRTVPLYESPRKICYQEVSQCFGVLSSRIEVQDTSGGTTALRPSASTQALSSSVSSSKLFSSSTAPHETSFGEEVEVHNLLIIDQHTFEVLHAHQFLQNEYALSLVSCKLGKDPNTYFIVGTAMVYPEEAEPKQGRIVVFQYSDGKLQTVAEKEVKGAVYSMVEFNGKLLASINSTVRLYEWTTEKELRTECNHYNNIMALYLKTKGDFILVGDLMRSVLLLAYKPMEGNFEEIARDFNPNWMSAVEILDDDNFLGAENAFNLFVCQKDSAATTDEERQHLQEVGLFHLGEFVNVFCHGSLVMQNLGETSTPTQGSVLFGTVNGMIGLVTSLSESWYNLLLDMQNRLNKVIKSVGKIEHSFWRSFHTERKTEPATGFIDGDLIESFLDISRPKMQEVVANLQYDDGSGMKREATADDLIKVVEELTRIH
Protein cereblon/DNA damage-binding protein 1 (Homo sapiens), sequence (Q96SW2 whole entry): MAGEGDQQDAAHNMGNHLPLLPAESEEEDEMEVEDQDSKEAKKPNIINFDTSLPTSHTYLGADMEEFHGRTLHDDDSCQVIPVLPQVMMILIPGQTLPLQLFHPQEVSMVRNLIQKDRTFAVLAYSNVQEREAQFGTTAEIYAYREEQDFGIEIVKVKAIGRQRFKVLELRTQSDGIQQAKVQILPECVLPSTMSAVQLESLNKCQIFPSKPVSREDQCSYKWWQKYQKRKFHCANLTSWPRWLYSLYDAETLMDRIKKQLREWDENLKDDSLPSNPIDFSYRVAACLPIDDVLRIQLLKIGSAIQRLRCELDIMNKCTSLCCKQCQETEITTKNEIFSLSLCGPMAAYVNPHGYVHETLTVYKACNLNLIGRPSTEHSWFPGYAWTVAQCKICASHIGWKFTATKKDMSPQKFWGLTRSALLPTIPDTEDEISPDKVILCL
Sigma intracellular receptor 2, sequence (Q5BJF2 whole entry): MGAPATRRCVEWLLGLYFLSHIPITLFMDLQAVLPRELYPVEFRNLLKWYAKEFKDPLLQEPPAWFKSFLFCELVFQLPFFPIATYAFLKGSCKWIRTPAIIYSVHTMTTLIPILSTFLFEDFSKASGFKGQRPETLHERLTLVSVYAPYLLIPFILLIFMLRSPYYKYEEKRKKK
Sigma non-opioid intracellular receptor 1, sequence (Q99720 whole entry): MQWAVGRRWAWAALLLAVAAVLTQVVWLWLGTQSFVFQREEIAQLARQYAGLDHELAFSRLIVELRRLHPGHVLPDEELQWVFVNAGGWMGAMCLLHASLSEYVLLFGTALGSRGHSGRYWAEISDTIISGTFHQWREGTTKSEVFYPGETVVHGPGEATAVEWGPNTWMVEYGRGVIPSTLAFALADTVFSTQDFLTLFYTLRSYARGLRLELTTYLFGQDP
5-hydroxytryptamine receptor 2B, sequence (P41595 whole entry): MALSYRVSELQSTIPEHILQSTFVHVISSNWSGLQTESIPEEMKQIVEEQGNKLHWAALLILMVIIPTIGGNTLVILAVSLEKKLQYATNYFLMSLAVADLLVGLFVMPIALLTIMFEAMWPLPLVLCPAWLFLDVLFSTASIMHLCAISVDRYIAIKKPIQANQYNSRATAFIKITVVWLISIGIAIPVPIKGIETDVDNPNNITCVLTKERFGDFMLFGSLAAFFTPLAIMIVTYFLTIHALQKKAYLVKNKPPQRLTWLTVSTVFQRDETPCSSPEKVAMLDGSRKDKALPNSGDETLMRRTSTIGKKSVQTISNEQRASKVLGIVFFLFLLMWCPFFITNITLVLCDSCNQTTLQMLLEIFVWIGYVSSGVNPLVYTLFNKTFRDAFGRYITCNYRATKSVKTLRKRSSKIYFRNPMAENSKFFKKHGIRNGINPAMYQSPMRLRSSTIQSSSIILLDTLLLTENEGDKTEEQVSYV
5-hydroxytryptamine receptor 2A, sequence (P28223 whole entry): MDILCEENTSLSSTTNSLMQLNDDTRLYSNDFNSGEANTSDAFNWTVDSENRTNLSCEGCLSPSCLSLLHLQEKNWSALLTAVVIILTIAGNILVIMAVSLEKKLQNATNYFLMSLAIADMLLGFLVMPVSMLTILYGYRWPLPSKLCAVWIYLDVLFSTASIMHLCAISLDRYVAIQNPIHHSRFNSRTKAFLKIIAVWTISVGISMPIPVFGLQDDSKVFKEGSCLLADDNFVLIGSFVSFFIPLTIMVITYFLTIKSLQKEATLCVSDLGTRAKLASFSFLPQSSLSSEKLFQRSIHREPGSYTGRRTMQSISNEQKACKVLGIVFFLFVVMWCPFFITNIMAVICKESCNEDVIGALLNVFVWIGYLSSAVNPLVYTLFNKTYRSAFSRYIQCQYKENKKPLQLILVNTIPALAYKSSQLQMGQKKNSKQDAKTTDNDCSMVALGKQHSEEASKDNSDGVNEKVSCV

| Structure (SMILES) | viability at 1 µM (RAW264.7 [1]) [%] | viability at 10 µM (RAW264.7 [2]) [%] | Activity (RAW264.7 [3]) [%] | Activity (RAW264.7 [4]) | Activity (RAW264.7 [5]) [%] | viability at 30 µM (RAW264.7 [6]) [%] | Activity (RAW264.7 [7]) [%] | Activity (RAW264.7 [8]) [%] | Activity (RAW264.7 [9]) [%] | Activity (RAW264.7 [10]) [%] | Activity (RAW264.7 [11]) [%] | Activity (RAW264.7 [12]) | Activity (RAW264.7 [13]) [%] | Ki [14] [nM] | Ki [15] [nM] | Activity [16] | Activity (RAW264.7 [17]) [%] | Ki [18] [nM] | Ki [19] [nM] | solubility [20] [µM] |
| --- | --- | --- | --- | --- | --- | --- | --- | --- | --- | --- | --- | --- | --- | --- | --- | --- | --- | --- | --- | --- |
| CN1CCC[C@H](N2C(=O)c3cccc(N)c3C2=O)C1 | 110 | 111 | 106 | Dose-Dependent Effect | – | – | – | – | – | – | – | – | – | – | – | – | – | – | – | – |
| Nc1cccc2c1C(=O)N([C@@H]1CCCNC1)C2=O | 100 | 103 | 91 | Dose-Dependent Effect | 95 | 114 | 87 | 68 | 108 | 72 | 60 | Dose-Dependent Effect | – | – | – | – | – | – | – | – |
| Nc1cccc2c1C(=O)N(C1CCCN(C(=O)C(F)(F)F)C1)C2=O (centres undefined) | 103 | 103 | 94 | – | – | 99 | 90 | 100 | – | – | – | – | 92 | – | – | – | – | – | – | – |
| Nc1cccc2c1C(=O)N(C1CCCNC1)C2=O (racemic) | 100 | 99 | 104 | Dose-Dependent Effect | – | 105 | 91 | 83 | 83 | 88 | 82 | – | 97 | 2200 | 561 | Dose-Dependent Effect | – | – | – | – |
| CC(=O)N1CCCC(N2C(=O)c3cccc(N)c3C2=O)C1 (centres undefined) | 102 | 103 | 86 | Dose-Dependent Effect | 86 | 101 | 88 | 81 | 111 | 106 | 89 | – | 95 | 5200 | – | Dose-Dependent Effect | 95 | 2400 | 5200 | – |
| CN1CCCC(N2C(=O)c3cccc(N)c3C2=O)C1 (racemic) | – | 95 | – | – | 116 | – | 105 | – | – | – | – | – | – | – | – | Dose-Dependent Effect | 111 | – | – | – |
| CCN1CCC[C@H](N2C(=O)c3cccc(N)c3C2=O)C1 | 100 | 96 | 109 | – | 111 | 94 | 120 | 114 | – | – | – | – | 115 | – | – | – | 114 | – | – | – |
| CC(C)N1CCCC(N2C(=O)c3cccc(N)c3C2=O)C1 (racemic) | 105 | 100 | 103 | – | 109 | 95 | 100 | 123 | – | – | – | – | 109 | – | – | – | 100 | – | – | – |
| CC(C)N1CCC[C@@H](N2C(=O)c3cccc(N)c3C2=O)C1 | 96 | 99 | 114 | – | 110 | 90 | 99 | 153 | – | – | – | – | 126 | – | – | – | 106 | – | – | – |
| Nc1cccc2c1C(=O)N([C@H]1CCCNC1)C2=O | 104 | 102 | 94 | Dose-Dependent Effect | 94 | 103 | – | 83 | – | 102 | 94 | Dose-Dependent Effect | 110 | – | – | – | – | – | – | – |
| Nc1cccc2c1C(=O)N(C1CCCN(C(=O)C3CC3)C1)C2=O (centres undefined) | 99 | 102 | 100 | – | 100 | 109 | 94 | 89 | – | – | – | – | – | – | – | – | – | – | – | – |
| CCN1CCCC(N2C(=O)c3cccc(N)c3C2=O)C1 (racemic) | 101 | 99 | 102 | – | 112 | 97 | 101 | 90 | – | – | – | – | 101 | – | – | – | 115 | – | – | – |
| Nc1cccc2c1C(=O)N(C1CCC(=O)NC1=O)C2=O (centres undefined) [POMALIDOMIDE] | – | – | – | – | – | – | – | – | – | – | – | – | – | – | – | – | – | – | – | 85 (≈ 23.2 µg/mL) |
| CC(C)N1CCC[C@H](N2C(=O)c3cccc(N)c3C2=O)C1 | 100 | 100 | 115 | – | 115 | 102 | 100 | 108 | – | – | – | – | 112 | – | – | – | 107 | – | – | – |
| CCN1CCC[C@@H](N2C(=O)c3cccc(N)c3C2=O)C1 | 106 | 104 | 96 | Dose-Dependent Effect | 97 | 102 | 93 | 80 | – | – | – | – | 93 | – | – | – | 92 | – | – | – |
| CN1CCC[C@@H](N2C(=O)c3cccc(N)c3C2=O)C1 | 100 | 100 | – | – | 100 | – | 101 | 95 | – | – | – | – | – | – | – | – | 108 | – | – | – |
